Experiments:
Assay in all cases: relative viability (nuclei count vs DMSO), 5 days (fraction); higher = more cells survive
COR-L 105 = tested on: COR-L 105
Method in brief: (§1)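 Values are medians from duplicate plates. Each reflects relative viability, defined as the nuclei count of treated wells over that of vehicle wells. Lung cancer cell lines in 1536-well plates were pin-tool dosed one day after seeding with one drug alone or with a fixed anchor-drug dose plus five library-drug doses (not always all listed) in √10 steps, then fixed, stained and imaged at 4× after 5 days.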

NCI-H1915 = tested on: NCI-H1915
Method in brief: as §1

EKVX = tested on: EKVX
Method in brief: as §1

NCI-H1944 = tested on: NCI-H1944
Method in brief: as §1

LXF-289 = tested on: LXF-289
Method in brief: as §1

PC-3 [JPC-3] = tested on: PC-3 [JPC-3]
Method in brief: as §1

NCI-H1793 = tested on: NCI-H1793
Method in brief: as §1

CAL-12T = tested on: CAL-12T
Method in brief: as §1

SK-MES-1 = tested on: SK-MES-1
Method in brief: as §1

NCI-H1437 = tested on: NCI-H1437
Method in brief: as §1

NCI-H2085 = tested on: NCI-H2085
Method in brief: as §1

NCI-H1651 = tested on: NCI-H1651
Method in brief: as §1

LC-2-ad = tested on: LC-2-ad
Method in brief: as §1

NCI-H1755 = tested on: NCI-H1755
Method in brief: as §1

SK-LU-1 = tested on: SK-LU-1
Method in brief: as §1

LK-2 = tested on: LK-2
Method in brief: as §1

EMC-BAC-2 = tested on: EMC-BAC-2
Method in brief: as §1

NCI-H2228 = tested on: NCI-H2228
Method in brief: as §1

H3255 = tested on: H3255
Method in brief: as §1

NCI-H2087 = tested on: NCI-H2087
Method in brief: as §1

NCI-H2347 = tested on: NCI-H2347
Method in brief: as §1

NCI-H1395 = tested on: NCI-H1395
Method in brief: as §1

NCI-H661 = tested on: NCI-H661
Method in brief: as §1

## O=C(O)CCCCC(CCSCc1ccccc1)SCc1ccccc1 (centres undefined) [CPI-613] + C[C@]1(O)C[C@@H](c2nc(-c3ccc4ccc(-c5ccccc5)nc4c3)c3c(N)nccn32)C1 [Linsitinib] (partner 1 µM)
COR-L 105; first compound 5 µM
  relative viability: 1.15
COR-L 105; first compound 15.81 µM
  relative viability: 0.77
COR-L 105; first compound 50 µM
  relative viability: 0.902
COR-L 105; first compound 158.11 µM
  relative viability: 0.664
COR-L 105; first compound 500 µM
  relative viability: 0.181
NCI-H1915; first compound 5 µM
  relative viability: 1.11
NCI-H1915; first compound 15.81 µM
  relative viability: 1.07
NCI-H1915; first compound 50 µM
  relative viability: 1.04
NCI-H1915; first compound 158.11 µM
  relative viability: 0.964
NCI-H1915; first compound 500 µM
  relative viability: 0.626
EKVX; first compound 5 µM
  relative viability: 0.993
EKVX; first compound 15.81 µM
  relative viability: 0.988
EKVX; first compound 50 µM
  relative viability: 0.955
EKVX; first compound 158.11 µM
  relative viability: 1.04
EKVX; first compound 500 µM
  relative viability: 1.05
NCI-H1944; first compound 5 µM
  relative viability: 1.31
NCI-H1944; first compound 15.81 µM
  relative viability: 1.15
NCI-H1944; first compound 50 µM
  relative viability: 1.14
NCI-H1944; first compound 158.11 µM
  relative viability: 0.968
NCI-H1944; first compound 500 µM
  relative viability: 0.787
LXF-289; first compound 5 µM
  relative viability: 0.997
LXF-289; first compound 15.81 µM
  relative viability: 0.969
LXF-289; first compound 50 µM
  relative viability: 0.921
LXF-289; first compound 158.11 µM
  relative viability: 0.269
LXF-289; first compound 500 µM
  relative viability: 0.0192
PC-3 [JPC-3]; first compound 5 µM
  relative viability: 0.953
PC-3 [JPC-3]; first compound 15.81 µM
  relative viability: 0.854
PC-3 [JPC-3]; first compound 50 µM
  relative viability: 0.883
PC-3 [JPC-3]; first compound 158.11 µM
  relative viability: 0.588
PC-3 [JPC-3]; first compound 500 µM
  relative viability: 0.64
NCI-H1793; first compound 5 µM
  relative viability: 0.822
NCI-H1793; first compound 50 µM
  relative viability: 0.823
NCI-H1793; first compound 158.11 µM
  relative viability: 0.774
NCI-H1793; first compound 500 µM
  relative viability: 0.102
CAL-12T; first compound 5 µM
  relative viability: 0.865
CAL-12T; first compound 15.81 µM
  relative viability: 0.634
CAL-12T; first compound 50 µM
  relative viability: 0.561
CAL-12T; first compound 158.11 µM
  relative viability: 0.642
CAL-12T; first compound 500 µM
  relative viability: 0.62
SK-MES-1; first compound 5 µM
  relative viability: 1.08
SK-MES-1; first compound 15.81 µM
  relative viability: 1.04
SK-MES-1; first compound 50 µM
  relative viability: 1.03
SK-MES-1; first compound 158.11 µM
  relative viability: 0.863
SK-MES-1; first compound 500 µM
  relative viability: 0.988
NCI-H1437; first compound 5 µM
  relative viability: 1.03
NCI-H1437; first compound 15.81 µM
  relative viability: 0.902
NCI-H1437; first compound 50 µM
  relative viability: 0.916
NCI-H1437; first compound 158.11 µM
  relative viability: 0.137
NCI-H1437; first compound 500 µM
  relative viability: 0.0235
NCI-H2085; first compound 5 µM
  relative viability: 0.854
NCI-H2085; first compound 15.81 µM
  relative viability: 0.759
NCI-H2085; first compound 50 µM
  relative viability: 0.95
NCI-H2085; first compound 158.11 µM
  relative viability: 0.548
NCI-H2085; first compound 500 µM
  relative viability: 0.2
NCI-H1651; first compound 5 µM
  relative viability: 0.968
NCI-H1651; first compound 15.81 µM
  relative viability: 0.92
NCI-H1651; first compound 50 µM
  relative viability: 0.836
NCI-H1651; first compound 158.11 µM
  relative viability: 0.316
NCI-H1651; first compound 500 µM
  relative viability: 0.133
LC-2-ad; first compound 5 µM
  relative viability: 0.805
LC-2-ad; first compound 15.81 µM
  relative viability: 0.847
LC-2-ad; first compound 50 µM
  relative viability: 0.738
LC-2-ad; first compound 158.11 µM
  relative viability: 0.251
LC-2-ad; first compound 500 µM
  relative viability: 0.0081
NCI-H1755; first compound 5 µM
  relative viability: 0.991
NCI-H1755; first compound 15.81 µM
  relative viability: 0.977
NCI-H1755; first compound 50 µM
  relative viability: 0.9
NCI-H1755; first compound 158.11 µM
  relative viability: 0.888
NCI-H1755; first compound 500 µM
  relative viability: 0.152
SK-LU-1; first compound 5 µM
  relative viability: 1.04
SK-LU-1; first compound 15.81 µM
  relative viability: 0.93
SK-LU-1; first compound 50 µM
  relative viability: 0.893
SK-LU-1; first compound 158.11 µM
  relative viability: 0.177
SK-LU-1; first compound 500 µM
  relative viability: 0.122
LK-2; first compound 5 µM
  relative viability: 0.526
LK-2; first compound 15.81 µM
  relative viability: 0.637
LK-2; first compound 50 µM
  relative viability: 0.655
LK-2; first compound 158.11 µM
  relative viability: 0.853
LK-2; first compound 500 µM
  relative viability: 0.54
EMC-BAC-2; first compound 5 µM
  relative viability: 0.733
EMC-BAC-2; first compound 15.81 µM
  relative viability: 0.823
EMC-BAC-2; first compound 50 µM
  relative viability: 0.825
EMC-BAC-2; first compound 158.11 µM
  relative viability: 0.701
EMC-BAC-2; first compound 500 µM
  relative viability: 0.272
NCI-H2228; first compound 5 µM
  relative viability: 0.735
NCI-H2228; first compound 15.81 µM
  relative viability: 0.453
NCI-H2228; first compound 50 µM
  relative viability: 0.402
NCI-H2228; first compound 158.11 µM
  relative viability: 0.221
NCI-H2228; first compound 500 µM
  relative viability: 0.0094
H3255; first compound 5 µM
  relative viability: 0.915
H3255; first compound 15.81 µM
  relative viability: 0.989
H3255; first compound 50 µM
  relative viability: 0.969
H3255; first compound 158.11 µM
  relative viability: 0.948
H3255; first compound 500 µM
  relative viability: 0.921
NCI-H2087; first compound 5 µM
  relative viability: 1.01
NCI-H2087; first compound 15.81 µM
  relative viability: 0.758
NCI-H2087; first compound 50 µM
  relative viability: 0.868
NCI-H2087; first compound 158.11 µM
  relative viability: 0.178
NCI-H2087; first compound 500 µM
  relative viability: 0.0125
NCI-H2347; first compound 5 µM
  relative viability: 0.983
NCI-H2347; first compound 15.81 µM
  relative viability: 0.857
NCI-H2347; first compound 50 µM
  relative viability: 0.86
NCI-H2347; first compound 158.11 µM
  relative viability: 0.874
NCI-H2347; first compound 500 µM
  relative viability: 0.868
NCI-H1395; first compound 5 µM
  relative viability: 1.09
NCI-H1395; first compound 15.81 µM
  relative viability: 0.961
NCI-H1395; first compound 50 µM
  relative viability: 1.08
NCI-H1395; first compound 158.11 µM
  relative viability: 1.1
NCI-H1395; first compound 500 µM
  relative viability: 1.04
NCI-H661; first compound 5 µM
  relative viability: 0.49
NCI-H661; first compound 15.81 µM
  relative viability: 0.458
NCI-H661; first compound 50 µM
  relative viability: 0.668
NCI-H661; first compound 158.11 µM
  relative viability: 0.503
NCI-H661; first compound 500 µM
  relative viability: 0.511

Reference: the supplement of paper PMC10307832
